Source: patent US11787769B2 (priority 2019, dated 2023)
Read-outs that look alike come from different tables or passages of the source.

What was measured:
[1] = test system: influenza A virus (HA of H5N1, Goose/Qinghai/59/05); experiment: microbe, parasite or virus in culture; type: cell-based; conditions: Influenza A virus
[2] = test system: PR8-PB2-Gluc, influenza A/Puerto Rico/8/1934 (PR8) H1N1 virus; experiment: microbe, parasite or virus in culture; type: cell-based; conditions: Influenza A virus, MDCK, read-out: EC50 (nM), antiviral activity in the infectious IAV
PR8-NS1-Gluc virus = experiment: microbe, parasite or virus in culture; type: cell-based, influenza A PR8
CYP3A4 = CYP3A4 (Homo sapiens, UniProt P08684); experiment: biochemical
CYP2C9 = CYP2C9 (Homo sapiens, UniProt P11712); experiment: biochemical
[3] = Hepatic metabolic stability in mouse liver microsomes; conditions: mouse LM, in the presence of NADPH
[4] = Hepatic metabolic stability in human liver microsomes; conditions: human LM, in the presence of NADPH
[5] = Pharmacokinetic analysis of plasma and liver levels in BALB/c mice
[6] = Influenza A virus, PR8, MDCK, 48 h

Sequence of CYP3A4 (P08684 whole entry): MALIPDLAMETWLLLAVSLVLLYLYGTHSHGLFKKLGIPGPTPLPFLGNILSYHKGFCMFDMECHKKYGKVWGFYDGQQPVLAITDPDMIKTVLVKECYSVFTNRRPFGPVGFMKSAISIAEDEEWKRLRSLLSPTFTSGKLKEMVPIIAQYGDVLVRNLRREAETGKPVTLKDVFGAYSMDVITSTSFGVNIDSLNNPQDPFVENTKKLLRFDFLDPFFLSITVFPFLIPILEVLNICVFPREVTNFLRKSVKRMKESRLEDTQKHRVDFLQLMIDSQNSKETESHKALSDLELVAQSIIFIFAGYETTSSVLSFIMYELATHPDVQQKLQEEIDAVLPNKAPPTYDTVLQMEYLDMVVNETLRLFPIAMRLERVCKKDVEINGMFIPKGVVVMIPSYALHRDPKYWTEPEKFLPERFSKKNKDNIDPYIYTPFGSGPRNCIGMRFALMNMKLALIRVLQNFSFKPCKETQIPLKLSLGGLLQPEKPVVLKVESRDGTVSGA
Sequence of CYP2C9 (P11712 whole entry): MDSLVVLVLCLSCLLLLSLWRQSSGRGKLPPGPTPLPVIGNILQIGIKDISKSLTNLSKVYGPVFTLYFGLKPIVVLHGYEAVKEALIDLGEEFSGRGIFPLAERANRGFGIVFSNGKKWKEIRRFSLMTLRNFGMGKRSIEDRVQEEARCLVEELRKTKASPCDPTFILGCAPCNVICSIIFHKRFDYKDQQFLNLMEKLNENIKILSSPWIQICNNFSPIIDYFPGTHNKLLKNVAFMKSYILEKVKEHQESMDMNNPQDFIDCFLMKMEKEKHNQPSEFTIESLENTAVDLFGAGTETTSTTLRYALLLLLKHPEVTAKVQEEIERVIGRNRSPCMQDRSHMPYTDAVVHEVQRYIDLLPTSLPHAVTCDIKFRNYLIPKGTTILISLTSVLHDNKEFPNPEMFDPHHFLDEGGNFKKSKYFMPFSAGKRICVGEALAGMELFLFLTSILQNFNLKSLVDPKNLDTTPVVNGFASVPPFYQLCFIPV

For `CC(C)(C)N1CCC(NC(=O)c2ccc(C(F)(F)F)cc2Cl)CC1` [Compound 16, N-(1-(tert-Butyl)piperidin-4-yl)-2-chloro-4-(trifluoromethyl)benzamide], which inhibition at 12.5 µM ([1]; H5N1, A549, 12.5 μM, read-out: H5N1 pseudotype assay % inhibition at 12.5 μM) is on record?
The inhibition at 12.5 µM was 99%.

And the EC50 ([1]; H5N1, A549, read-out: H5N1 pseudotype assay EC50 (μM))?
The EC50 was 0.24 ± 0.09 µM.

What about the EC50 [2] of the same compound?
The EC50 was 72 nM.

What about the “EC30” value (PR8-NS1-Gluc virus) of the same compound?
Its value is 134 nM.

What about the “EC40” value (PR8-NS1-Gluc virus) of the same compound?
The value was 160 nM.

And the “EC60” value (PR8-NS1-Gluc virus)?
Its value is 219 nM.

What about the “EC70” value (PR8-NS1-Gluc virus) of the same compound?
The value was 260 nM.

What about the “EC80” value (PR8-NS1-Gluc virus) of the same compound?
The value was 321 nM.

And the EC50 (PR8-NS1-Gluc virus; [6])?
Its EC50 is 187 nM.

What about the EC90 (PR8-NS1-Gluc virus; [6]) of the same compound?
The EC90 was 439 nM.

And the IC50 (CYP3A4)?
The IC50 was > 100000 nM.

And the IC50 (CYP2C9)?
Its IC50 is > 100000 nM.

And the “percentage of compound remaining after 60 minutes” value [3]?
Its value is 94%.

And the “percentage of compound remaining after 60 minutes” value [4]?
The value was 97%.

What about the Cmax ([5]; 5x the dose p.o. (50 mg/kg), plasma) of the same compound?
The Cmax was 7641 ng/mL.

What about the “Cmax p.o. relative to i.p. (fold higher)” value ([5]; 5x the dose p.o. vs 10 mg/kg i.p., plasma) of the same compound?
Its value is 7 ×.

And the oral bioavailability ([5]; BALB/c mice, p.o. vs i.p. Cmax)?
The oral bioavailability was “excellent oral bioavailability”.

What about the Tmax ([5]; BALB/c, mouse, plasma, intraperitoneal, oral) of the same compound?
The Tmax was 30 min.

What about the “AUC(0-8 h)” value ([5]; i.p. (10 mg/kg), liver) of the same compound?
The value was 66400 ng·h/g.

What about the T1/2 ([5]; i.p. (10 mg/kg), liver) of the same compound?
The T1/2 was 148 min.

What about the Tmax ([5]; i.p. (10 mg/kg), liver) of the same compound?
The Tmax was 15 min.

And the “AUC(0-8 h)” value ([5]; i.p. (10 mg/kg), plasma)?
Its value is 3282 ng·h/g.

And the T1/2 ([5]; i.p. (10 mg/kg), plasma)?
Its T1/2 is 91.8 min.

What about the Tmax ([5]; i.p. (10 mg/kg), plasma) of the same compound?
The Tmax was 30 min.

What about the “AUC(0-8 h)” value ([5]; p.o. (50 mg/kg), liver) of the same compound?
The value was 292000 ng·h/g.

And the T1/2 ([5]; p.o. (50 mg/kg), liver)?
The T1/2 was 155 min.

What about the Tmax ([5]; p.o. (50 mg/kg), liver) of the same compound?
Its Tmax is 60 min.

And the “AUC(0-8 h)” value ([5]; p.o. (50 mg/kg), plasma)?
The value was 23705 ng·h/g.

What about the T1/2 ([5]; p.o. (50 mg/kg), plasma) of the same compound?
The T1/2 was 130 min.

And the Tmax ([5]; p.o. (50 mg/kg), plasma)?
Its Tmax is 30 min.

And the Cmax ([5]; read-out: Cmax level in the plasma, 10 mg/kg i.p.)?
Its Cmax is 3.12 µM.
